# Experimental data reported in patent publication US8618127B2, “Methods and compositions for alleviating stuttering” (Endo Pharmaceuticals Solutions Inc., priority 2000, dated 2013).
# Legend:
# [1] = Stuttering of a patient treated with pagoclone in a double-blind placebo-controlled panic disorder clinical trial; format: in vivo, human
# Method: A patient is enrolled in a clinical trial examining the efficacy and safety of pagoclone, a drug which works at the GABAA receptor, in the treatment of panic disorder, an anxiety disorder. […] The double-blind placebo-controlled trial conceals the drug type until the conclusion of the trial. During the trial the patient is taking 0.60 mg pagoclone/day (0.20 mg t.i.d.). The patient had never before experienced this sort of an effect on their stuttering and they had taken, in the past, other anti-anxiety medications for their psychiatric condition, none of which had such an effect on their stuttering. During the trial, both they and the clinician treating them in the clinical trial notice the reduction in their stuttering, which is documented at their week 2 visit. […] During the trial they also are taking ibuprofen and a prophylactic for urinary tract infections.
# [2] = eight-week course, randomized patients; cited from earlier work
# [3] = Elliot et al. 1985; cited from earlier work
compound,measurement,setting,value
"CC(C)CCC(=O)CC1c2ccccc2C(=O)N1c1ccc2ccc(Cl)nc2n1 (single isomer, unassigned; (+)) [pagoclone, (+)2-(7-chloro-1,8-naphthyridine-2-yl)-3-(5-methyl-2-oxo-hexyl)-1-isoindolinone]",effect on stuttering while taking the drug,"[1]; patient, fairly severe stuttering, 0.60 mg pagoclone/day (0.20 mg t.i.d.), documented at week 2 visit",significant reduction in their fairly severe stuttering problem
same,effect on anxiety and psychiatric condition,"[1]; same patient with panic disorder, 0.60 mg pagoclone/day",reduction in their anxiety and improvement in their psychiatric condition
same,stuttering after stopping the drug,"[1]; same patient, after stopping pagoclone",returns to the pre-drug level within a day
O=C(CCCN1CCC(O)(c2ccc(Cl)cc2)CC1)c1ccc(F)cc1 [haloperidol],"effect on stuttering, objective measures of speech",[2],significant improvement
Cc1nnc2n1-c1ccc(Cl)cc1C(c1ccccc1)=NC2 [Alprazolam],drug-induced stuttering,[3],can induce stuttering
